Experimental findings from patent US20030119728A1, “Stable, nasally, orally or sublingually applicable pharmaceutical preparation” (priority 2000, published 2003) are described below.

A short description of this data set: Preliminary study of desmopressin preparations with various pH values, 6 weeks at 50° C. in glass flasks. In kind it is physicochemical. To be noted: pH 1.0-7.0 tested, desmopressin content and sum of G1-G4. As to the method: Desmopressin preparations with various pH values (1.0, 2.0, 3.0, 4.0, 5.0, 6.0, and 7.0) were investigated for these preliminary studies. These solutions were stored in glass flasks for 6 weeks at 50° C. and then analysed in the usual way with the use of analytical columns. After 6 weeks the pH values of the seven solutions were unchanged.

Consider `NC(=O)CC[C@@H]1NC(=O)[C@H](Cc2ccccc2)NC(=O)[C@H](Cc2ccc(O)cc2)NC(=O)CCSSC[C@@H](C(=O)N2CCC[C@H]2C(=O)N[C@H](CCCN=C(N)N)C(=O)NCC(N)=O)NC(=O)[C@H](CC(N)=O)NC1=O` [desmopressin, 1-deamino-8-D-arginine-vasopressin], for which the “pH region in which desmopressin is most stable” value is roughly 5.0.
